Assay results taken from patent US8859060B2, “Protective film of polarizer, polarizer and liquid crystal display device” (FUJIFILM Corporation, priority 2009, dated 2014).
“And” between values parts separate entries of the source, which are not always exact repeats. Equal entries are not always repeated.

Test: Solubility in water at 25° C.
Details: not given
In the case of O=C(O)c1ccc(C(=O)O)cc1 [Terephthalic acid, reference compound], the Solubility to water is reported as “More than 1 wt %”.

Test: Acid dissociation constant by alkali titration in THF/water=6/4
Type: physicochemical
Details: mixed solvent of THF/water=6/4 by volume at 25° C.
Method: Preferably, the acid dissociation constant of the organic acid in a mixed solvent of THF/water=6/4 by volume at 25° C. is from 2.5 to 7, more preferably from 2.5 to 6.5, even more preferably from 3 to 5.
O=C(O)CC(O)(CC(=O)O)C(=O)O [Citric acid, citric acid, reference compound] showed an Acid dissociation constant of 4.0. In the case of CCC(C)(C)c1ccc(OCCCC(=O)O)c(C(C)(C)CC)c1 [Organic acid F, reference compound], the Acid dissociation constant is reported as 7.3. For O=C1NC(=O)N(Cc2ccccc2)C(=O)C1c1ccccc1 (stereo not shown) [Organic acid A], the Acid dissociation constant was 4.0 and 3.0. Compound CCC(Oc1ccc(C(C)(C)CC)cc1C(C)(C)CC)C(=O)Nc1cccc(C(=O)O)c1 (stereo not shown) [Organic acid B] has an Acid dissociation constant of 6.6. O=C1NS(=O)(=O)c2ccccc21 [Organic acid H] gave an Acid dissociation constant of 2.6. Compound CC(=O)Nc1c(I)cc(I)c(C(=O)O)c1I [Organic acid D] has an Acid dissociation constant of 4.4. Work on Nc1c(F)c(F)c(C(=O)O)c(F)c1F [Organic acid C] yielded an Acid dissociation constant of 5.0. In the case of O=C(O)C=Cc1ccccc1 [Cinnamic acid, cinnamic acid, reference compound], the Acid dissociation constant is reported as 4.7. Work on O=C(O)c1ccc(C(=O)O)cc1 [Terephthalic acid, reference compound] yielded an Acid dissociation constant of 4.5.
